For one experiment, the target named is T1, rat liver DHFR (Rattus norvegicus, UniProt Q920D2).
T1 sequence (Q920D2 1-187): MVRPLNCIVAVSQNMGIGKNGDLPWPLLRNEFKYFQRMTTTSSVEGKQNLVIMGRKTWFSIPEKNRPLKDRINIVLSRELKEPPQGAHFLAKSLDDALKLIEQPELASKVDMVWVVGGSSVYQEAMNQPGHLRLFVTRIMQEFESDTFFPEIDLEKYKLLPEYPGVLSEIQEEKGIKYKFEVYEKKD
Kind of experiment: Inhibition of rat liver DHFR (literature assay). Particulars: read-out: IC50 (μM) Rat liver, compounds 3a-k.

Experiment [1] deals with T2, T. gondii DHFR (Toxoplasma gondii, UniProt Q07422).
T2 sequence (Q07422 1-610): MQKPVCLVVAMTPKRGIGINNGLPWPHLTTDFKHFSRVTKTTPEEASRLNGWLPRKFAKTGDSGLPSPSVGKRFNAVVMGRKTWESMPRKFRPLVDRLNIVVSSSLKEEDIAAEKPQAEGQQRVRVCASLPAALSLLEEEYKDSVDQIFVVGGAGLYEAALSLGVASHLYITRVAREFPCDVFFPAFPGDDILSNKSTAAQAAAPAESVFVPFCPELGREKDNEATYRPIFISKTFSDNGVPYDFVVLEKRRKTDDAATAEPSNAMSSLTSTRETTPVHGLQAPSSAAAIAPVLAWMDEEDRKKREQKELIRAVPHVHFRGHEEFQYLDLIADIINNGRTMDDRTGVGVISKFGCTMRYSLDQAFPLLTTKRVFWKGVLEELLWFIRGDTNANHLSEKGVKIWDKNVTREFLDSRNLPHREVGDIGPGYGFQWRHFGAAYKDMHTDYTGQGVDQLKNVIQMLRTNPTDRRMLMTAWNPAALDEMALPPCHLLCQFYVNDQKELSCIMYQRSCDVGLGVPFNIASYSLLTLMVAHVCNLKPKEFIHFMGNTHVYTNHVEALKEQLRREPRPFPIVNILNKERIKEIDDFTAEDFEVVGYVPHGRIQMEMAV
It counts as biochemical. Conditions: compounds 3a-k.

The target of experiment [2] is T2, T. gondii DHFR. Conditions: reported in the literature; cited from earlier work.
The next experiment concerns the target T3, M. avium DHFR (Mycobacterium avium, UniProt O30463).
T3 sequence (O30463 1-181): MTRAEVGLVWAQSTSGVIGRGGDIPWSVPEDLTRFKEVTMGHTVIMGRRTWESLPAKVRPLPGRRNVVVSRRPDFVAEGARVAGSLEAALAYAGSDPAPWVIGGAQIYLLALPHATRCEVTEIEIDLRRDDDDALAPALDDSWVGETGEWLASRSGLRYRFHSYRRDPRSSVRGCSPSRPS
Put plainly: Inhibition of M. avium DHFR (literature assay). The experiment is classed as biochemical. Particulars: compounds 3a-k.

A further experiment concerns the target E. coli DHFR (Escherichia coli, UniProt P0ABQ4). Conditions: Kuyper et al., J. Med. Chem. 1985; cited from earlier work.

Molecules are shown by their SMILES.

Usually IC50 stands for the concentration at which inhibition is half-maximal. Turning to `COc1ccc(OCCCCCCCCC(=O)O)cc1Cc1cnc(N)nc1N` [Compound 3k], the IC50 on rat liver DHFR came out at 12 µM; on T. gondii DHFR [1], 0.43 µM.

With `CCOc1cc(Cc2cnc(N)nc2N)cc(OCC)c1-n1cccc1` [Compound 19, epiroprim], the “selectivity T. gondii versus rat liver DHFR” value on T. gondii DHFR [2] was 155.

`CCCCCCCCCOc1ccc(OC)c(Cc2cnc(N)nc2N)c1` [Compound 3e, 2,4-Diamino-5-(2-methoxy-5-nonyloxybenzyl)pyrimidine]: the values for the IC50 on rat liver DHFR, on T. gondii DHFR [1] and against M. avium DHFR were 86 µM, 32 µM and 32 µM, respectively.

For `CCCCCCCOc1ccc(OC)c(Cc2cnc(N)nc2N)c1` [Compound 3c, 2,4-Diamino-5-(2-methoxy-5-heptyloxybenzyl)pyrimidine], the values for the IC50 on rat liver DHFR, against T. gondii DHFR [1] and at M. avium DHFR were 11 µM, 5 µM and 0.89 µM, respectively.

Take `COc1ccc(OCCCCCCCC(=O)O)cc1Cc1cnc(N)nc1N` [Compound 3j]: the concentration for half-maximal inhibition (IC50) at rat liver DHFR was determined as 12 µM; against T. gondii DHFR [1] it was 0.36 µM; against M. avium DHFR it was 0.13 µM.

For `COc1ccc(OCCCCCC(=O)O)cc1Cc1cnc(N)nc1N` [Compound 3h], the IC50 at rat liver DHFR was 17 µM; at T. gondii DHFR [1] it was 0.48 µM; against M. avium DHFR it was 0.15 µM.

In the case of `COc1ccc(OCCCCCCC(=O)O)cc1Cc1cnc(N)nc1N` [Compound 3i], the IC50 was determined as 12 µM at rat liver DHFR and 0.19 µM against M. avium DHFR.

For the compound `CCCCCCOc1ccc(OC)c(Cc2cnc(N)nc2N)c1` [Compound 3b, 2,4-Diamino-5-(2-methoxy-5-hexyloxybenzyl)pyrimidine], the IC50 at rat liver DHFR was determined as 29 µM; against T. gondii DHFR [1], 9.2 µM; against M. avium DHFR, 0.39 µM.

Turning to `COc1cc(Cc2cnc(N)nc2N)cc(OCCCCCC(=O)O)c1OC` [Compound 18], the “Ki E. coli DHFR” value on E. coli DHFR was “highest affinity”.

As for `CCCCCOc1ccc(OC)c(Cc2cnc(N)nc2N)c1` [Compound 3a, 2,4-Diamino-5-(2-methoxy-5-pentyloxybenzyl)pyrimidine], the IC50 at rat liver DHFR is 44 µM; on T. gondii DHFR [1], 6.5 µM; against M. avium DHFR, 0.31 µM.

With `COc1ccc(OCCCC(=O)O)cc1Cc1cnc(N)nc1N` [Compound 3f], the half-inhibitory concentration (IC50) at rat liver DHFR came to 2.6 µM; at T. gondii DHFR [1], 0.18 µM; at M. avium DHFR it was 0.0048 µM.

As for `CCCCCCCCOc1ccc(OC)c(Cc2cnc(N)nc2N)c1` [Compound 3d, 2,4-Diamino-5-(2-methoxy-5-octyloxybenzyl)pyrimidine], the IC50 is 30 µM at rat liver DHFR and 15 µM against T. gondii DHFR [1].

The values are drawn from US7119095B2, “Pharmaceutically active compounds and methods of use thereof” (Dana Farber Cancer Institute, priority 2001, dated 2006).
